Measurements reported in patent US20030138856A1, “Process for the measurement of dinophysistoxin and yessotoxin” (priority 2000, published 2003).

Tested on: E-cadherin and related antigens ECRA100 and ECRA135 in MCF-7 cells
Assay: E-cadherin, ECRA135 and ECRA100 levels in cytosoluble extracts of toxin-treated MCF-7 cells (SDS-PAGE, anti-E-cadherin immunoblotting, densitometry)
Format: cell-based, human
Settings: for pattern of E-cadherin and related antigens on immunoblot (FIG. 1): 50 nM each agent, 18 hr at 37° C.; for concentration above which the pattern characteristic for each group of toxins is maintained when the two groups are present at the same time: both toxins together in the cell culture
Description: The MCF-7 cell line employed in these experiments has been obtained from the European Collection of Cell Cultures (ECACC No: 86012803; CB No: CB2705). Cells have been maintained at 37° C. in an atmosphere containing 5% CO2 in Petri dishes, in a culture medium composed of Dulbecco's modified MEM, containing foetal bovine serum (10%), nonessential aminoacids (1%) and 2 mM glutamine. Cell treatments have been carried out by adding appropriate aliquots of toxins from stock solutions prepared with absolute ethanol, and control cultures received an identical volume of vehicle. Working solutions of the different agents were obtained by serial dilutions of stock solutions, represented by 50 μM okadaic acid and 500 μM yessotoxin, respectively, and were stored at −20° C., in glass vials, protected from light. The ethanol concentrations in culture media has never been higher than 0.5% (v/v), which represents a concentration uncapable to affect the molecular parameters measured in these experiments.
The cellular extracts employed in the present analyses have been obtained from the cells adhering to culture vessels at the end of the indicated treatments, and the procedure was carried out at 4° C. Cells were washed three times with 20 mM phosphate buffer, pH 7.4, containing 0.15 M NaCl (PBS) and were then lysed by the addition of 25 μl of lysis buffer/cm^2 of culture surface area, and by keeping cells in contact with this solution for 10 minutes at 4° C. The lysis buffer was composed of PBS, containing: 0.5% (w/v) Na deoxycholate, 0.1% (w/v) Na dodecylsulfate (SDS), 1% (v/v) Triton X-100, 0.1 mg/ml phenylmethyl sulfonyl fluoride (PMSF). Cellular lysates were then centrifuged for 30 minutes at 16000 xg, and the supernatants of this centrifugation (cytosoluble extracts) were recovered and used to measure their total protein content by a […] method, using bicinchoninic acid (Smith P. K et al., 1985, Anal. Biochem., 150:76). Cytosoluble extracts were then brought to a final 2% SDS, 5% β-mercaptoethanol and 20% glycerol concentration, and were treated for 5 min at 100° C., before being used for protein fractionation by electrophoresis.
Samples, usually containing the same amount of protein, corresponding to about 50 μg, were subjected to polyacrylamide gel electrophoresis in the presence of SDS, according to the procedure by Laemmli (Laemmli U. K. , 1970, Nature, 227:680), using separating gels containing 10% acrylamide monomer. At the end of the electrophoresis (running time about 3 hr at 170 Volts), proteins were electrophoretically transferred to a nitrocellulose membrane (Protran B83), and were then stained with Ponceau S.
Aspecific binding sites on the membrane were then saturated by a 1 hr incubation at room temperature with a solution composed of 20 mM Tris-HCl, pH 7.5 at 25° C., 150 mM NaCl (TBS), containing 3% (w/v) low fat dry milk and 1 mM CaCl2. The membrane was then incubated with TBS containing 1 % (w/v) low fat dry milk, 1 mM CaCl2, and 2 μg of anti-E-cadherin antibody/ml buffer, for 1 hr at room temperature. At the end of the incubation the membrane was washed four times for 5 min and then a fifth time for 10 min with TBS containing 0.05% (w/v) Tween 20 (TBS-Tween buffer). The membrane was then incubated with TBS-Tween containing 1% (w/v) low fat dry milk and secondary antibody (horse radish peroxydase conjugated anti-mouse Ig antibody) at a 1:3000 dilution, for 1 hr at room temperature. At the end of this incubation, the membrane was washed as previously described, and the antigens were then detected by the ECL procedure and autoradiography, using Kodak X-Omat films. The electropherogram was then subjected to densitometric scanning, and the absorbance measured from the peak area was recorded and used to quantify the detected antigens. […]

[1] = MCF-7 cells treated with 50 nM OA
[2] = MCF-7 cells, YTX 1 μM, 24 hr incubation, n=4

With `C=C1[C@@H](O)[C@@H]2O[C@]3(CC[C@H](/C=C/[C@@H](C)[C@@H]4CC(C)=C[C@@]5(O[C@H](C[C@@](C)(O)C(=O)O)CC[C@H]5O)O4)O3)CC[C@H]2O[C@@H]1[C@@H](O)C[C@H](C)[C@H]1O[C@@]2(CCCCO2)CC[C@H]1C` [OA, okadaic acid] the “E-cadherin, % of total immunoreactivity” value [1] was 77.6±12.3%, the “ECRA100, % of total immunoreactivity” value [1] was 1.8±3.1% and the “ECRA135, % of total immunoreactivity” value [1] was 20.6±9.6%. For the same compound, the “relative total immunoreactivity (Σ), % of that in extracts from control cells” value [1] was 15.4±8.7%, the “pattern of E-cadherin and related antigens on immunoblot (FIG. 1)” value (MCF-7 cells) was “appearance of ECRA135” and the “OA concentration at which ECRA100 levels are minimal” value (MCF-7 cells, 20 hr) was “higher than 50 nM”. The “OA concentration at which ECRA135 level is maximal” value (MCF-7 cells, 20 hr) was 75 nM, the “OA concentration at which detection of ECRA135 starts” value (MCF-7 cells, 20 hr) was 20 to 30 nM and the “OA concentration at which the decrease in immunoreactive material (Σ) can be detected” value (MCF-7 cells, 20 hr) was “higher than 10 nM”. For the same compound, the “OA concentration at which the decrease in immunoreactive material (Σ) is maximal” value (MCF-7 cells, 20 hr) was “higher than 75 nM”, the “equivalent OA concentrations within which proportionality in the assay is kept” value (MCF-7 cells, 20 hr) was 30 to 75 nM and the “equivalent OA concentrations within which proportionality in the assay is kept, as mass concentration” value (MCF-7 cells, 20 hr, corresponding to 30-75 nM) was 25-60 ng OA/ml. The “concentration above which the pattern characteristic for each group of toxins is maintained when the two groups are present at the same time” value was “higher than 35 nM”.
With `C=CCC(=C)/C=C/[C@@](C)(O)[C@H]1O[C@@H]2C[C@@H]3O[C@@H]4C[C@@H]5O[C@@H]6C[C@@H]7O[C@@H]8C[C@@H]9O[C@@H]%10C[C@@H]%11O[C@](C)(CCOS(=O)(=O)O)[C@@H](OS(=O)(=O)O)C[C@H]%11O[C@H]%10C[C@H]9O[C@H]8CC[C@@]7(C)O[C@@]6(C)CC[C@H](C)[C@H]5O[C@H]4C[C@@]3(C)O[C@H]2CC1=C` [YTX, yessotoxin] the “ECRA135 detection after treatment with YTX alone” value (MCF-7 cells) was “never been detected”, the “pattern of E-cadherin and related antigens on immunoblot (FIG. 1)” value (MCF-7 cells) was “most immunoreactivity is associated with the 100 kDa (101.9±3.2 kDa) band” and the “YTX concentration at which the increase in immunoreactive material (Σ) is detectable” value (MCF-7 cells, 20 hr) was “about 0.2 nM”. The “YTX concentration at which the increase in immunoreactive material reaches maximal levels” value (MCF-7 cells, 20 hr) was no less than 1 nM, the “equivalent YTX concentrations within which proportionality in the assay is maintained, as mass concentration” value (MCF-7 cells, 20 hr, corresponding to 0.2-0.5 nM) was 240-600 pg YTX/ml and the ECRA135 detection (MCF-7 cells, YTX 1 μM, 24 hr incubation) was “undetectable”. The “E-cadherin, share of total immunoreactivity” value [2] was 52.0±1.7, the “ECRA100, share of total immunoreactivity” value [2] was 48.0±1.7 and the “relative total immunoreactivity (Σ), as compared to controls” value [2] was 190±32%. For the same compound, the “E-cadherin level, percentage of total immunoreactivity (E-cadherin+ECRA100+ECRA135) of the sample” value ([YTX] ≧0.5 nME/[DTX] <25 nME) was 40-60%, the “ECRA100 level, percentage of total immunoreactivity of the sample” value ([YTX] ≧0.5 nME/[DTX] <25 nME) was 40-60% and the “relative total immunoreactivity (Σ), percentage of total immunoreactivity in the controls” value ([YTX] ≧0.5 nME/[DTX] <25 nME) was 150-250%. For the same compound, the “concentration above which the pattern characteristic for each group of toxins is maintained when the two groups are present at the same time” value was greater than 0.4 nM.
